The text below walks through data of patent US8314138B2, “Pyrazole derivative as SCD1 inhibitors for the treatment of diabetes” (Novartis AG, priority 2006, dated 2012).

The structures appear in SMILES notation. pIC50: −log10 of the molar value.

The experiment addresses T1, stearoyl-CoA desaturase (SCD1) (Mus musculus, UniProt P13516).
T1 construct: Male ICR outbread mice, on a high-carbohydrate, low fat diet; from tissue; host or cells: liver microsomes of male ICR mice on a high-carbohydrate, low fat diet
T1 sequence (P13516 1-355): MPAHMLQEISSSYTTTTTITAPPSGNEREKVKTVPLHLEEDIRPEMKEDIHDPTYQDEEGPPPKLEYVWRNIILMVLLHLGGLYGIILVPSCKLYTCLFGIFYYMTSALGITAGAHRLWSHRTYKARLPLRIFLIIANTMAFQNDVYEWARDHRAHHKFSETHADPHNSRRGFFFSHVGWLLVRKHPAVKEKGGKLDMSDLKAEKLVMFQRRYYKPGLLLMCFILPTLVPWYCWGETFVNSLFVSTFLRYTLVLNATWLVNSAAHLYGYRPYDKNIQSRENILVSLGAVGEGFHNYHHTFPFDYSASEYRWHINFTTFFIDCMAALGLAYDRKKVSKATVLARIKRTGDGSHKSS
In words: SCD microsomal assay: release of 3H2O from [9,10-3H]stearoyl-CoA in mouse liver microsomes. In kind it is biochemical. The following applies: 15 min incubation, 25° C. From the text:
The identification of compounds of the invention as SCD inhibitors was readily accomplished using the SCD enzyme and microsomal assay procedure described in Shanklin J. and Summerville C., Proc. Natl. Acad. Sci. USA (1991), Vol. 88, pp. 2510-2514.
Measuring Stearoyl-CoA Desaturase Inhibition Activity of a Test Compound Using Mouse Liver Microsomes
The identification of compounds of the invention as SCD inhibitors was readily accomplished using the SCD microsomal assay procedure described in Shanklin J. and Summerville C., Proc. Natl. Acad. Sci. USA (1991), Vol. 88, pp. 2510-2514, which is incorporated herein by reference in its entirety.
Preparation of Mouse Liver Microsomes:
Male ICR outbread mice, on a high-carbohydrate, low fat diet, under light halothane (15% in mineral oil) anesthesia are sacrificed by exsanguination during periods of high enzyme activity. Livers are immediately rinsed with cold 0.9% NaCl solution, weighed and minced with scissors. All procedures are performed at 4° C. unless specified otherwise. Livers are homogenized in a solution (1/3 w/v) containing 0.25 M sucrose, 62 mM potassium phosphate buffer (pH 7.0), 0.15 M KCl, 15 mM N-acetylcysteine, 5 mM MgCl2, and 0.1 mM EDTA using 4 strokes of a Potter-Elvehjem tissue homogenizer. The homogenate is centrifuged at 10,400×g for 20 min to eliminate mitochondria and cellular debris. The supernatant is filtered through a 3-layer cheesecloth and centrifuged at 105,000×g for 60 min. The microsomal pellet is gently resuspended in the same homogenization solution with a small glass/teflon homogenizer and stored at −70° C. The absence of mitochondrial contamination is enzymatically assessed. The protein concentration is measured using bovine serum albumin as the standard.
Incubation of Mouse Liver Microsomes with Test Compounds:
Desaturase activity is measured as the release of ^3H2O from [9,10-^3H]stearoyl-CoA. Reactions per assay point conditions are as follows: 2 μL 1.5 mM stearoyl-CoA, 0.25 μL 1 mCi/mL ^3H stearoyl CoA, 10 μL 20 mM NADH, 36.75 μL 0.1 M PK buffer (K2HPO4/NaH2PO4, pH 7.2). The test compound or control solution is added in a 1 μL volume. Reactions are started by adding 50 μL of microsomes (1.25 mg/mL). The plates are mixed and after 15 min incubation on a heating block (25° C.), the reactions are stopped by the addition of 10 μL 60% PCA. An aliquot of 100 μL is then transferred to a filter plate pretreated with charcoal and the plate centrifuged at 4000 rpm for 1 minute. The flow through containing the ^3H2O released by the SCD1 desaturation reaction is added to scintillation fluid and the radioactivity measured in a Packard TopCount. The data is analyzed to identify the IC50 for test compounds and reference compounds. […] The activity was defined in terms of % SCD enzyme activity remaining at the desired concentration of the test compound or as the IC50 concentration. The IC50 (affinity) of the example compounds toward the stearoyl-CoA desaturase is comprised between around 20 μM and 0.0001 μM or between around 5 μM and 0.0001 μM or between around 1 μM and 0.0001 μM.
The compound `Cc1nc(-c2cncc(CCc3ccccc3)n2)sc1C(=O)NCc1ccccc1` [Example 4, 4-methyl-2-(6-phenethyl-pyrazin-2-yl)-thiazole-5-carboxylic acid benzylamide] gave a pIC50 of 7.38.
Regarding `Cc1nc(-c2cncc(N(C)CCCc3ccccc3)n2)sc1C(=O)NCc1ccc(F)cc1` [Example 16, 4-methyl-2-{6-[methyl-(3-phenyl-propyl)-amino]-pyrazin-2-yl}-thiazole-5-carboxylic acid 4-fluoro-benzylamide], the pIC50 is 6.79.
For the compound `COc1ccc(CN(C)c2cncc(-c3nc(C)c(C(=O)NCc4ccc(F)cc4)s3)n2)cc1` [Example 22, 2-{6-[(4-methoxy-benzyl)-methyl-amino]-pyrazin-2-yl}-4-methyl-thiazole-5-carboxylic acid 4-fluoro-benzylamide], the pIC50 was 7.01.
The compound `Cc1nc(-c2cncc(N(C)Cc3ccc(F)cc3)n2)sc1C(=O)NCc1ccccc1` [Example 29, 2-{6-[(4-fluoro-benzyl)-methyl-amino]-pyrazin-2-yl}-4-methyl-thiazole-5-carboxylic acid benzylamide] gave a pIC50 of 6.91. The pIC50 values of the last two compounds are within 0.2 log units of each other.
The result for `Cc1nc(-c2ccn(CCCc3ccccc3)n2)sc1C(=O)NCc1ccccc1` [Example 37, 4-methyl-2-[1-(3-phenyl-propyl)-1H-pyrazol-3-yl]-thiazole-5-carboxylic acid benzylamide] reads 7.15.
With `Cc1nc(-c2ccn(Cc3ccc(C#N)cc3)n2)sc1C(=O)NCc1cccnc1` [Example 52, 2-[1-(4-cyano-benzyl)-1H-pyrazol-3-yl]-4-methyl-thiazole-5-carboxylic acid (pyridin-3-ylmethyl)amide], the negative logarithm of the IC50 (pIC50) is 7.13.
`Cc1nc(-c2ccn(Cc3ccc(S(C)(=O)=O)cc3)n2)sc1C(=O)NCc1cccnc1` [Example 66, 2-[1-(4-methanesulfonyl-benzyl)-1H-pyrazol-3-yl]-4-methyl-thiazole-5-carboxylic acid (pyridin-3-ylmethyl)amide] showed a pIC50 of 6.76.
The result for `Cc1nc(-c2ccn(CCN(C)c3ccccc3)n2)sc1C(=O)NCc1cccnc1` [Example 79, 4-methyl-2-{1-[2-(methyl-phenylamino)-ethyl]-1H-pyrazol-3-yl}-thiazole-5-carboxylic acid (pyridin-3-ylmethyl)amide] reads 7.31; that for `Cc1nc(-c2ccn(CCC3CC3)n2)sc1C(=O)NCc1ccc(F)cc1` [Example 85, 2-[1-(2-cyclopropyl-ethyl)-1H-pyrazol-3-yl]-4-methyl-thiazole-5-carboxylic acid 4-fluoro-benzylamide], 6.83.
Regarding `COc1ccc(CCn2ccc(-c3nc(C)c(C(=O)NCc4ccc(F)cc4)s3)n2)cc1` [Example 87, 2-{1-[2-(4-Methoxy-phenyl)-ethyl]-1H-pyrazol-3-yl}-4-methyl-thiazole-5-carboxylic acid 4-fluoro-benzylamide], the pIC50 was 7.02.
